Here are results for 7 molecules from patent publication US20260184663A1, “INDENE COMPOUNDS, PHARMACEUTICAL COMPOSITIONS THEREOF, AND THEIR THERAPEUTIC APPLICATIONS” (NucMito Pharmaceuticals co. Ltd., priority 2022, published 2026).

Some results are limits rather than exact numbers.

Format in all cases: cell-based
Experiment [1] concerns A431 (epidermoid carcinoma). Description: Antiproliferative activity (CCK-8 cell viability), A431. To be noted: Homo sapiens, 72 h, read-out: Antiproliferative activity in cancerous cells, A431 (inhibition of cell growth); for inhibition at 3.3 µM: A-431, Compound concentration: 3.3 μM; for inhibition at 10 µM: A-431, Compound concentration: 10 μM. Summed up: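 Cell viability of compound-treated A431 cells was measured with a Cell Counting Kit-8. Each well received 10 μL of CCK-8 after 72 h of compound exposure, followed by 4 h incubation at 37° C. and a 450 nm plate-reader measurement. Percent viability was calculated relative to DMSO controls across replicates.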

The subject of the next experiment is HeLa (cervical cancer). Description: Antiproliferative activity (CCK-8 cell viability), HeLa. To be noted: Homo sapiens, 72 h, read-out: Antiproliferative activity in cancerous cells, HELA (inhibition of cell growth); for inhibition at 3.3 µM: Compound concentration: 3.3 μM; for inhibition at 10 µM: Compound concentration: 10 μM. Put shortly:
(§1)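 Cells were seeded at 2,000-5,000/well (HeLa in MEM, HepG2 and SW480 in DMEM, A549 in F-12K, all with 10% FBS) and treated with compound at 3.3, 10 or 30 μM for 72 h at 37° C. CCK-8 was added for 4 h, absorbance was read at 450 nm, and viability was expressed relative to DMSO-treated wells.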

A further experiment concerns HepG2 (liver cancer). Description: Antiproliferative activity (CCK-8 cell viability), HepG2. To be noted: Homo sapiens, 72 h, read-out: Antiproliferative activity in cancerous cells, HepG2 (inhibition of cell growth); for inhibition at 3.3 µM: Compound concentration: 3.3 μM; for inhibition at 10 µM: Compound concentration: 10 μM. Summed up: as §1
The next experiment relates to SW480 (colon cancer). The experiment in a line: Antiproliferative activity (CCK-8 cell viability), SW480. To be noted: Homo sapiens, 72 h, read-out: Antiproliferative activity in cancerous cells, SW480 (inhibition of cell growth); for inhibition at 3.3 µM: Compound concentration: 3.3 μM; for inhibition at 10 µM: Compound concentration: 10 μM. Put shortly:
as §1

Experiment [2] relates to A549 (lung adenocarcinoma). The experiment in a line: Antiproliferative activity (CCK-8 cell viability), A549. To be noted: Homo sapiens, 72 h; for inhibition at 3.3 µM: Compound concentration: 3.3 μM; for inhibition at 3.3 µM / inhibition at 10 µM: read-out: Antiproliferative activity in cancerous cells, A549 (inhibition of cell growth); for inhibition at 10 µM: Compound concentration: 10 μM. Put shortly: as §1

Experiment [3] relates to B16F10 (malignant melanoma). The experiment in a line: Antiproliferative activity (CCK-8 cell viability), B16F10. To be noted: Mus musculus, 72 h, read-out: Antiproliferative activity in cancerous cells, B16F10 (inhibition of cell growth); for inhibition at 3.3 µM: B16-F10, Compound concentration: 3.3 μM; for inhibition at 10 µM: B16-F10, Compound concentration: 10 μM. Summed up: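 Attached B16F10 cells in 96-well plates were incubated with compound at 37° C for 72 h, followed by 10 μL CCK-8 reagent per well and a further 4 h incubation. A multi-well plate reader measured absorbance at 450 nm. Percent viability across replicates was calculated against DMSO vehicle-treated cells.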

Experiment [4] concerns alpha-smooth muscle actin (α-SMA). Description: Inhibition of TGF-β induced expression of alpha-smooth muscle actin (α-SMA) in CFSC cells (western blot). To be noted: compound at 10 μM, TGF-β (10 ng/mL), 24 hours, band intensity vs TGF-β only. Summed up: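 CFSC hepatic stellate cells in serum-free DMEM treated 24 h at 37 °C with compound at 10 μM plus TGF-β (10 ng/mL). α-SMA measured by Western blot with β-actin, ECL detection, densitometry. Percent inhibition is decrease in band intensity versus TGF-β-only cells.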

Experiment [5] relates to MDA-MB-231 (breast cancer). Description: Antiproliferative activity (CCK-8 cell viability), MDA-MB-231. Conditions: Homo sapiens, 72 h, read-out: Antiproliferative activity in cancerous cells, MDA-MB-231 (inhibition of cell growth); for inhibition at 3.3 µM: Compound concentration: 3.3 μM; for inhibition at 10 µM: Compound concentration: 10 μM. Summed up:
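In this CCK-8 viability assay, MDA-MB-231 cells maintained in Dulbecco's modified Eagle's medium containing 10% fetal bovine serum were placed in 96-well plates (2,000-5,000 cells/well) and treated with compound for 72 h at 37° C. A 4 h incubation with 10 μL CCK-8 followed, plates were read at 450 nm, and viability was expressed against DMSO vehicle wells across replicates.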

As to `CCc1ccc2c(c1)C(CC(=O)O)=C(C)/C2=C/c1ccc(COc2ccccc2)cc1` [B5, (Z)-2-(5-Ethyl-2-methyl-1-(4-(phenoxymethyl)benzylidene)-1H-inden-3-yl)acetic acid], the inhibition at 3.3 µM in experiment [1] is at least 50%; in the experiment on HeLa (cervical cancer) it was under 30%; with HepG2 (liver cancer), at least 50%; with SW480 (colon cancer) it was at least 50%; in experiment [2], 30 to 50%; in experiment [3], at least 50%. Also, the inhibition at 3.3 µM in experiment [5] was under 30%. In addition, the inhibition at 10 µM (in experiment [1]; with HeLa (cervical cancer); with HepG2 (liver cancer); with SW480 (colon cancer); in experiment [2]; in experiment [3]) was at least 50% each time. Besides, the inhibition at 10 µM was over 80% in experiment [4] and at least 50% in experiment [5].
As to `C=CC1=C(CC(=O)O)c2ccccc2/C1=C\c1ccc(Oc2ccc(F)cc2)cc1` [C25, (Z)-2-(1-(4-(4-Fluorophenoxy)benzylidene)-2-vinyl-1H-inden-3-yl)acetic acid], the inhibition at 3.3 µM was under 30% in experiment [1]; 30 to 50% in the experiment with HeLa (cervical cancer); under 30% in the experiment with HepG2 (liver cancer); 30 to 50% in the experiment on SW480 (colon cancer); under 30% in experiment [2]; at least 50% in experiment [3]. Besides, the inhibition at 3.3 µM in experiment [5] is at least 50%. The inhibition at 10 µM is under 30% in experiment [1]; 30 to 50% in the experiment on HeLa (cervical cancer); under 30% in the experiment on HepG2 (liver cancer); 30 to 50% in the experiment on SW480 (colon cancer); 30 to 50% in experiment [2]; at least 50% in experiment [3]. For the same molecule, the inhibition at 10 µM in experiment [4] was under 30%; in experiment [5] it was at least 50%. The inhibition at 30 µM in experiment [2] (Compound concentration: 30 μM, read-out: Antiproliferative activity in cancerous cells, A549) was 30 to 50%.
Take `CCCC1=C(CC(=O)O)c2cc(F)ccc2/C1=C\c1ccc(COc2ccccc2)cc1` [A4, (Z)-2-(5-Fluoro-1-(4-(phenoxymethyl)benzylidene)-2-propyl-1H-inden-3-yl)-acetic acid]: the inhibition at 3.3 µM in experiment [1] is under 30%; in the experiment with HeLa (cervical cancer), at least 50%; with HepG2 (liver cancer), 30 to 50%; in the experiment on SW480 (colon cancer) it was under 30%; in experiment [2], 30 to 50%; in experiment [3], 30 to 50%. Moreover, in experiment [5], the inhibition at 3.3 µM was at least 50%. Besides, the inhibition at 10 µM in experiment [1] is at least 50%; in the experiment on HeLa (cervical cancer) it was at least 50%; with HepG2 (liver cancer) it was at least 50%; with SW480 (colon cancer), 30 to 50%; in experiment [2], at least 50%; in experiment [3], at least 50%. Also, the results for the inhibition at 10 µM in experiment [4] and in experiment [5] were 50 to 80% and at least 50%, respectively.
On to `CCc1ccc2c(c1)C(CC(=O)O)=C(C)/C2=C/c1ccc(Oc2ccc(F)cc2)cc1` [C5, (Z)-2-(5-Ethyl-1-(4-(4-fluorophenoxy)benzylidene)-2-methyl-1H-inden-3-yl)-acetic acid], for which the inhibition at 3.3 µM in experiment [1] was at least 50%; with HeLa (cervical cancer), under 30%; with HepG2 (liver cancer), at least 50%; with SW480 (colon cancer) it was under 30%; in experiment [2], 30 to 50%; in experiment [3], under 30%. The inhibition at 3.3 µM in experiment [5] is under 30%. The inhibition at 10 µM in experiment [1] was at least 50%; in the experiment on HeLa (cervical cancer), at least 50%; in the experiment on HepG2 (liver cancer), at least 50%; with SW480 (colon cancer), under 30%; in experiment [2] it was 30 to 50%; in experiment [3], at least 50%. The figures for the inhibition at 10 µM in experiment [4] and in experiment [5] were over 80% and at least 50%, respectively.
Take `CC1=C(CC(=O)O)c2ccc(F)cc2/C1=C\c1cccc(COc2ccccc2)c1` [B10, (Z)-2-(6-Fluoro-2-methyl-1-(3-(phenoxymethyl)benzylidene)-1H-inden-3-yl)-acetic acid]: the inhibition at 3.3 µM in experiment [1] is under 30%; with HeLa (cervical cancer) it was under 30%; in the experiment with HepG2 (liver cancer) it was 30 to 50%; in the experiment on SW480 (colon cancer), under 30%; in experiment [2] it was under 30%; in experiment [3], under 30%. The inhibition at 3.3 µM in experiment [5] lay within 30 to 50%. For the same molecule, the inhibition at 10 µM is at least 50% in experiment [1]; under 30% with HeLa (cervical cancer); at least 50% in the experiment with HepG2 (liver cancer); under 30% in the experiment with SW480 (colon cancer); at least 50% in experiment [2]; at least 50% in experiment [3]. The inhibition at 10 µM was over 80% in experiment [4] and at least 50% in experiment [5].
As for `CCC1=C(CC(=O)O)c2cc(F)ccc2/C1=C\c1ccc(Oc2ccc(F)cc2)cc1` [C6, (Z)-2-(2-Ethyl-5-fluoro-1-(4-(4-fluorophenoxy)benzylidene)-1H-inden-3-yl)acetic acid], the inhibition at 3.3 µM in experiment [1] was 30 to 50%; in the experiment with HeLa (cervical cancer), at least 50%; in the experiment with HepG2 (liver cancer), under 30%; in the experiment with SW480 (colon cancer), at least 50%; in experiment [2], 30 to 50%; in experiment [3], 30 to 50%. In addition, the inhibition at 3.3 µM in experiment [5] was at least 50%. Moreover, the inhibition at 10 µM was at least 50% in experiment [1]; at least 50% with HeLa (cervical cancer); 30 to 50% in the experiment on HepG2 (liver cancer); at least 50% in the experiment on SW480 (colon cancer); at least 50% in experiment [2]; at least 50% in experiment [3]. The results for the inhibition at 10 µM in experiment [4] and in experiment [5] were over 80% and at least 50%, respectively.
Turning to `CC1=C(CC(=O)O)c2c(F)cccc2/C1=C\c1ccc(COc2ccccc2)cc1` [B6, (Z)-2-(4-Fluoro-2-methyl-1-(4-(phenoxymethyl)benzylidene)-1H-inden-3-yl)-acetic acid], the inhibition at 3.3 µM in experiment [1] is under 30%; with HeLa (cervical cancer), under 30%; in the experiment on HepG2 (liver cancer), under 30%; with SW480 (colon cancer) it was under 30%; in experiment [2] it was 30 to 50%; in experiment [3], under 30%. The inhibition at 3.3 µM in experiment [5] was at least 50%. For the same molecule, the inhibition at 10 µM was at least 50% in experiment [1]; at least 50% in the experiment with HeLa (cervical cancer); at least 50% in the experiment on HepG2 (liver cancer); under 30% with SW480 (colon cancer); 30 to 50% in experiment [2]; 30 to 50% in experiment [3]. The inhibition at 10 µM in experiment [4] is over 80%; in experiment [5], at least 50%.
